Publication PMC9120017, “Inhibition mechanism of the chloride channel TMEM16A by the pore blocker 1PBC” (Nature Communications, 2022)
Where two headings read alike, the source gives them in different places.

Molecular target: T1, mouse TMEM16A mutant R535A (Mus musculus, UniProt Q8BHY3, R535A)
T1 construct: expressed in transfected cells; host or cells: HEK293T
T1 sequence (Q8BHY3 1-960 R535A): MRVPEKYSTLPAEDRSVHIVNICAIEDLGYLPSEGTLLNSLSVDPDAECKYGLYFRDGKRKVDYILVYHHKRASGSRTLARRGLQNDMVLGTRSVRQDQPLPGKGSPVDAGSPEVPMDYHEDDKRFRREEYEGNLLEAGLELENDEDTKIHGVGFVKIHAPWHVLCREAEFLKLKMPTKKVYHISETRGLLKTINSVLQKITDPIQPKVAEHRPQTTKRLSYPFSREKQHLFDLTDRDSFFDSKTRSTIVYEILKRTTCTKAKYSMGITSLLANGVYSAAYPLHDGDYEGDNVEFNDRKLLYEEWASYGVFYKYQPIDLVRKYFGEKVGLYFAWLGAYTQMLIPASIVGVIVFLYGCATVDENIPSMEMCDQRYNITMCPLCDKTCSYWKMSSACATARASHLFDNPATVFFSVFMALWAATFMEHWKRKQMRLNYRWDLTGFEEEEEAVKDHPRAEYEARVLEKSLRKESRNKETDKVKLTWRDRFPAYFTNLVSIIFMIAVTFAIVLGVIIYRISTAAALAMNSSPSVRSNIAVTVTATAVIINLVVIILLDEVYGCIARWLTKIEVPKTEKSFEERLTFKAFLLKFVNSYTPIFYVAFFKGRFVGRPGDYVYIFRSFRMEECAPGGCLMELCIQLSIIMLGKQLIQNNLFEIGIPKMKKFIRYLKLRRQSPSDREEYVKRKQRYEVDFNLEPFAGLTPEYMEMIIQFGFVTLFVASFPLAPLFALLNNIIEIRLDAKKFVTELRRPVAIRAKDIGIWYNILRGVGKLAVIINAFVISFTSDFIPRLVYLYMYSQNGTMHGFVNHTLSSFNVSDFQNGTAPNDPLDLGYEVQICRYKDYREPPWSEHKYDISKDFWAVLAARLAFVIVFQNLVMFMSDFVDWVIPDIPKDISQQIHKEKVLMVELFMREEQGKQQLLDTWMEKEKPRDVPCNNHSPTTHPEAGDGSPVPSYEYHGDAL
Assay: Inside-out patch recording of 1PBC block, mutant R535A
Type: cell-based
Conditions: for remaining activity at 30 µM: 1PBC 30; for remaining activity at 30 µM / remaining activity at 100 µM: read-out: fraction of unblocked current; for remaining activity at 100 µM: 1PBC 100
Description: HEK293T cells (ATCC CRL-1573) were maintained in Dulbecco’s modified Eagle’s medium (DMEM; Sigma-Aldrich) supplemented with 10 U ml^−1 penicillin, 0.1 mg ml^−1 streptomycin (Sigma-Aldrich), 2 mM L-glutamine (Sigma-Aldrich), and 10% FBS (Sigma-Aldrich) in a humidified atmosphere containing 5% CO2 at 37 °C. HEK293S GnTI^− cells (ATCC CRL-3022) were maintained in HyClone HyCell TransFx-H medium (GE Healthcare) supplemented with 10 U ml^−1 penicillin, 0.1 mg ml^−1 streptomycin, 4 mM L-glutamine, 0.15% poloxamer 188 (Sigma-Aldrich), and 1% FBS in an atmosphere containing 5% CO2 at 185 rpm at 37 °C. The ac splice variant of mouse TMEM16A (UniProt ID: Q8BHY3), mouse TMEM16B (UniProt ID: Q8CFW1), or mouse TMEM16F (UniProt ID: Q6P9J9) bearing a 3C cleavage site, a Venus YFP, a Myc tag, and a Streptavidin-binding peptide (SBP) downstream of the open reading frame in a modified pcDNA3.1 vector (Invitrogen) were used as described previously[21],[31]. Mutations were introduced using a modified QuikChange method[58] and were verified by sequencing.
HEK293T cells were transfected with 3–4 μg DNA per 6 cm Petri dish using the calcium phosphate co-precipitation method and were used within 24–96 h after transfection. Recordings were performed on inside-out patches excised from HEK293T cells expressing the construct of interest. Patch pipettes were pulled from borosilicate glass capillaries (O.D. 1.5 mm, I.D. 0.86 mm, Sutter Instrument) and were fire-polished with a microforge (Narishige) before use. Pipette resistance was typically 3–8 MΩ when filled with the recording solutions detailed below. Seal resistance was typically 4 GΩ or higher. Voltage-clamp recordings were made using Axopatch 200B, Digidata 1550, and Clampex 10.7 (Molecular Devices). Analog signals were filtered with the in-built 4-pole Bessel filter at 10 kHz and were digitized at 20 kHz. Solution exchange was achieved using a gravity-fed system through a theta glass pipette mounted on an ultra-fast piezo-driven stepper (Siskiyou). […] All recordings were performed at 20 °C.
A symmetrical ionic condition was used throughout. Stock solution with Ca^2+-EGTA contained 150 mM NaCl, 5.99 mM Ca(OH)2, 5 mM EGTA, and 10 mM HEPES at pH 7.40. Stock solution with EGTA contained 150 mM NaCl, 5 mM EGTA, and 10 mM HEPES at pH 7.40. Free Ca^2+ concentrations were adjusted by mixing the stock solutions at the required ratios calculated using the WEBMAXC program (http://web.stanford.edu/~cpatton/webmaxcS.htm). Patch pipettes were filled with the stock solution with Ca^2+-EGTA, which has a free Ca^2+ concentration of 1 mM. 1PBC (ChemBridge) stock was reconstituted in anhydrous DMSO (Sigma-Aldrich) at 100 mM and stored at −20 °C. Working solutions with 1PBC were prepared by serial dilution. Unless otherwise stated, experiments were performed at a saturating Ca^2+ concentration as shown in Supplementary Table 1 and the primary data were corrected for current rundown as described previously[21],[25].
Concentration-response relations, obtained from the ratio of the I-V plots before and after the application of the blocker, were fitted to the Hill equation,1 I/Imax=1/1+IC50/[blocker]^h where I/Imax is the normalized current responses, IC50 defines the concentration at which inhibition is at its half-maximum, and h is the Hill coefficient.

N#Cc1c(C(F)(F)F)cc(O)n2c1nc1ccccc12 [1PBC]
remaining activity at 30 µM (-60 mV): 41.8%
remaining activity at 30 µM (-80 mV): 46.3%
remaining activity at 30 µM (-100 mV): 50.1%
remaining activity at 30 µM (-120 mV): 53.6%
remaining activity at 30 µM (-140 mV): 55.9%
remaining activity at 100 µM (0 mV): 10.2%
remaining activity at 100 µM (20 mV): 8.03%
remaining activity at 100 µM (40 mV): 6.85%
remaining activity at 100 µM (60 mV): 5.65%
remaining activity at 100 µM (80 mV): 5.26%
remaining activity at 100 µM (100 mV): 4.79%
remaining activity at 100 µM (120 mV): 4.05%
remaining activity at 100 µM (140 mV): 4.54%
remaining activity at 100 µM (-20 mV): 12.4%
remaining activity at 100 µM (-40 mV): 14.1%
remaining activity at 100 µM (-60 mV): 17.7%
remaining activity at 100 µM (-80 mV): 21.3%
remaining activity at 100 µM (-100 mV): 25.1%
remaining activity at 100 µM (-120 mV): 29%
remaining activity at 100 µM (-140 mV): 32.4%
IC50 (20 mV, 2 µM Ca2+): 9.48 µM
IC50 (40 mV, 2 µM Ca2+): 7.82 µM
IC50 (60 mV, 2 µM Ca2+): 6.65 µM
log-fold IC50 (change of mutant vs WT) (80 mV): 0.4043
IC50 (80 mV, 2 µM Ca2+): 6.02 µM
IC50 (100 mV, 2 µM Ca2+): 5.51 µM
IC50 (120 mV, 2 µM Ca2+): 5.53 µM
IC50 (140 mV, 2 µM Ca2+): 5.76 µM
IC50 (-20 mV, 2 µM Ca2+): 14.9 µM
IC50 (-40 mV, 2 µM Ca2+): 17.7 µM
IC50 (-60 mV, 2 µM Ca2+): 21.4 µM
IC50 (-80 mV, 2 µM Ca2+): 25.9 µM
IC50 (-100 mV, 2 µM Ca2+): 30.1 µM
IC50 (-120 mV, 2 µM Ca2+): 35.1 µM
IC50 (-140 mV, 2 µM Ca2+): 38.8 µM
IC50 (R535A, V 0 mV): 11.9 µM
IC50 (R535A, V 20 mV): 9.48 µM
IC50 (R535A, V 40 mV): 7.82 µM
IC50 (R535A, V 60 mV): 6.65 µM
IC50 (R535A, V 80 mV): 6.02 µM
IC50 (R535A, V 100 mV): 5.51 µM
IC50 (R535A, V 120 mV): 5.53 µM
IC50 (R535A, V 140 mV): 5.76 µM
IC50 (R535A, V -20 mV): 14.9 µM
IC50 (R535A, V -40 mV): 17.7 µM
IC50 (R535A, V -60 mV): 21.4 µM
IC50 (R535A, V -80 mV): 25.9 µM
IC50 (R535A, V -100 mV): 30.1 µM
IC50 (R535A, V -120 mV): 35.1 µM
IC50 (R535A, V -140 mV): 38.8 µM
